Tests used:
[1] = system: rhabdomyosarcoma (RD) cells; test: Assay for inhibition of cell proliferation (MTT), rhabdomyosarcoma cells; assay type: cell-based, human; details: for RD Ratio (paclitaxel/compound): ratio of paclitaxel IC50 to compound IC50, RD cells; for IC50: rhabdomyosarcoma (RD) cells, MTT, 96 h incubation
Method: (§1) Human rabdomyosarcoma (RD) and mouse neuroblastoma (N1E115) cell lines were obtained from the American Type Culture Collection (ATCC, Rockville, Md.). The RD cells were grown in Dulbecco's modified eagle medium (DMEM) supplemented with 4 mM glutamine, containing 10% fetal bovine serum (ATCC #30-2020) and supplemented with 1% penicillin and 1% streptomycin. When confluent, the cells were maintained by passage (about once per week) until needed. The N1E115 line was also cultured in DMEM with 4 mM glutamine containing 10% newborn calf serum (Gibco, Grand Island, N.Y.) and likewise maintained.
(§2) The proliferation of rhabdomyosarcoma cells was determined using a cell proliferation assay kit based on the formation of insoluble formazan crystals from 3-(4,5-dimethylthiazol-2-yl)-2,5-diphenyltetrazolium bromide (MTT). The rhabdomyosarcoma cells were cultured to a density of 10^5 cells per mL. The cell culture (100 μL) was dispensed into wells of a 96-well plate to 10^4 cells per well. The plate was incubated at 37° C. for 3 h until the cells firmly attached to the well surfaces.
(§3) A second 96-well round bottom plate was made up containing the test compounds, serially diluted to cover the concentration range of interest using the DMEM medium plus antibiotics. The final concentration of DMSO in which the compounds were initially dissolved was maintained at a constant 0.5% in each well and the volume of the compounds in the plate was 220 μL. Following the 3 h incubation the medium was removed from the plate containing the cells and replaced with 200 μL of the solutions containing the compounds. The cells were incubated for a further 96 h before the assessment of growth inhibition using MTT.
(§4) The cells were left bathing in 100 μL of the saline solution to which was added 100 μL of MTT in saline (12 mM). Incubation was continued for 4 h at 37° C. to produce the blue formazan color which was quantified by optical density measurements at 570 nm. Background correction of all test wells was performed by subtraction of the yellow MTT solution color measured at 570 nm in cell-free wells. The data were normalized to solvent only control wells.

[2] = system: neuroblastoma (N1E115) cells; test: Assay for inhibition of cell proliferation (MTT), neuroblastoma cells; assay type: cell-based, mouse; details: for IC50: neuroblastoma (N1E115) cells, MTT; for N1E115 Ratio (paclitaxel/compound): ratio of paclitaxel IC50 to compound IC50, N1E115 cells
Method: as §1, §2, §3, §4

Structure (SMILES) | RD Ratio (paclitaxel/compound) [1] | IC50 [1] [nM] | IC50 [2] [nM] | N1E115 Ratio (paclitaxel/compound) [2] | IC50 ([1]; Homo sapiens) [nM] | IC50 ([2]; Mus musculus, N1E-115) [nM]
CN(C)CCCOc1cc(F)c(-c2c(Cl)nc(-n3cccn3)c(=O)n2-c2cccc(F)c2)c(F)c1 [Compound 491] | 0.60 | 28.5 | 22 | 4.00 | – | –
CC[C@H](C)Cn1c(-c2c(F)cc(OCCCN(C)C)cc2F)c(Cl)nc(-n2cccn2)c1=O [Compound 482, 5-chloro-6-[4-[3-(dimethylamino)propoxy]-2,6-difluorophenyl]-1-[(2S)-2-methylbutyl]-3-(1H-pyrazol-1-yl)-2(1H)-pyrazinone] | 11.33 | – | – | 33.85 | 1.5 | 2.6
CCC(C)Cn1c(-c2ccc(OCCN3CCCC3)cc2F)c(Cl)nc(-n2cccn2)c1=O (centres unmarked) [Compound 478] | 0.04 | 470 | 1090 | 0.08 | – | –
CC(=O)O[C@H]1C(=O)[C@@]2(C)[C@H]([C@H](OC(=O)c3ccccc3)[C@]3(O)C[C@H](OC(=O)[C@H](O)[C@@H](NC(=O)c4ccccc4)c4ccccc4)C(C)=C1C3(C)C)[C@]1(OC(C)=O)CO[C@@H]1C[C@@H]2O [paclitaxel, reference compound] | – | – | – | – | 17 | 88
CC[C@H](C)Cn1c(-c2c(F)cc(OCCN(C)C)cc2F)c(Cl)nc(C(N)=O)c1=O [Compound 484] | 1.70 | 10 | 285 | 0.31 | – | –
CCC(C)Cn1c(-c2c(F)cc(F)cc2F)c(Cl)nc(C(N)=O)c1=O (centres unmarked) [Compound 415] | 0.43 | 40 | 60 | 1.47 | – | –
CCCCn1c(-c2c(F)cc(F)cc2F)c(Cl)nc(-c2ccccn2)c1=O [Compound 240] | 0.01 | 1670 | 59 | 1.49 | – | –
CC(C)Cn1c(-c2c(F)cccc2F)c(Cl)nc(-n2cccn2)c1=O [Compound 1, 5-Chloro-6-(2,6-difluorophenyl)-1-(2-methylpropyl)-3-(1H-pyrazol-1-yl)-2(1H)-pyrazinone] | 0.03 | – | – | 0.80 | 500 | 110
CC[C@H](C)Cn1c(-c2c(F)cc(OC)cc2F)c(Cl)nc(-n2cccn2)c1=O [Compound 457, 5-Chloro-1-[(2S)-2-methylbutyl)-3-(1H-pyrazol-1-yl)-6-(2,6-difluoro-4-methoxyphenyl)-2(1H)-pyrazinone] | 15.45 | – | – | 2.26 | 1.1 | 39
CNCCCOc1cc(F)c(-c2c(Cl)nc(-n3cccn3)c(=O)n2-c2cccc(F)c2)c(F)c1.Cl [Compound 492] | 5.15 | 3.3 | 16 | 5.50 | – | –
CC[C@H](C)Cn1c(-c2c(F)cc(O)cc2F)c(Cl)nc(-n2cccn2)c1=O [Compound 503] | 0.15 | 114 | 256 | 0.34 | – | –
CC(C)Cn1c(-c2c(F)cc(OCCCN(C)C)cc2F)c(Cl)nc(-n2cccn2)c1=O [Compound 495] | 0.49 | 35 | 353 | 0.25 | – | –
CCC(C)Cn1c(-c2ccc(OCCN(C)C)cc2F)c(Cl)nc(-n2cccn2)c1=O (centres unmarked) [Compound 477] | 0.06 | 262 | 462 | 0.19 | – | –
CC(C)Cn1c(-c2c(F)cccc2F)c(Cl)nc(-n2cncn2)c1=O [Compound 3] | 0.01 | 3010 | 790 | 0.11 | – | –
CC[C@H](C)Cn1c(-c2c(F)cc(OCCCNC)cc2Cl)c(Cl)nc(-n2cccn2)c1=O [Compound 493, 5-chloro-6-[2-chloro-6-fluoro-4-[3-(methylamino)propoxy]phenyl]-1-[(2S)-2-methylbutyl]-3-(1H-pyrazol-1-yl)-2(1H)-pyrazinone] | 28.33 | – | – | 19.56 | 0.6 | 4.5
CCC(C)Cn1c(-c2c(F)cc(OCCN(C)C)cc2F)c(Cl)nc(-n2cccn2)c1=O (centres unmarked) [Compound 479, 5-Chloro-6-[4-[2-(dimethylamino)ethoxy]-2,6-difluorophenyl]-1-(2-methylbutyl)-3-(1H-pyrazol-1-yl)-2(1H)-pyrazinone] | 0.09 | – | – | 3.52 | 200 | 25
CNCCCOc1cc(F)c(-c2c(Cl)nc(-n3ccc(C)n3)c(=O)n2CC(C)C)c(F)c1 [Compound 496] | 0.40 | 43 | 90 | 0.98 | – | –
CN(C)CCCOc1cc(F)c(-c2c(Cl)nc(-n3cccn3)c(=O)n2CC2CC2)c(F)c1 [Compound 481, 5-chloro-1-cyclopropylmethyl-6-[4-[3-(dimethylamino)propoxy]-2,6-difluorophenyl]-3-(1H-pyrazol-1-yl)-2(1H)-pyrazinone] | 5.37 | – | – | 2.93 | 3.2 | 30
O=c1c(-n2cccn2)nc(Cl)c(-c2c(F)cc(F)cc2F)n1-c1cccc(F)c1 [Compound 324] | 0.34 | 50 | 147 | 0.60 | – | –
CC[C@H](C)Cn1c(-c2c(F)cc(OC(C)=O)cc2F)c(Cl)nc(-n2cccn2)c1=O [Compound 501] | 0.30 | 57 | 62 | 1.42 | – | –
CC[C@H](C)Cn1c(-c2c(F)cc(OCCCN(C)C)cc2F)c(Cl)nc(-n2ccc(C)n2)c1=O [Compound 498, 5-chloro-6-[4-[3-(dimethylamino)propoxy]-2,6-difluorophenyl]-1-[(2S)-2-methylbutyl]-3-(3-methyl-1H-pyrazol-1-yl)-2(1H)-pyrazinone] | 4.47 | – | – | 6.29 | 3.8 | 14
CNCCCOc1cc(F)c(-c2c(Cl)nc(-n3cccn3)c(=O)n2CC(C)C)c(F)c1.Cl [Compound 500] | 8.50 | 2 | 16 | 5.50 | – | –
CC[C@H](C)Cn1c(-c2ccc(F)cc2Cl)c(Cl)nc(-n2cccn2)c1=O [Compound 263] | 0.34 | 50 | 80 | 1.10 | – | –
O=c1c(-n2cccn2)nc(Cl)c(-c2c(F)cccc2F)n1Cc1ccc(F)cc1 [Compound 272] | 0.24 | 70 | 70 | 1.26 | – | –
CCC(C)Cn1c(-c2c(F)cc(OCCN3CCCC3)cc2F)c(Cl)nc(-n2cccn2)c1=O (centres unmarked) [Compound 480] | 0.04 | 463 | 393 | 0.22 | – | –

Reference: patent US20090186907A1, “Pyrazinones As Cellular Proliferation Inhibitors” (E.I. DuPont De Nemours and Company, priority 2006, published 2009)
